PMC7937321 (Genes and Environment, 2021)

Columns and labels:
[1] = tested on: rodent; conditions: cited from earlier work
[2] = tested on: L5178Y mouse lymphoma cells; conditions: cited from earlier work
[3] = tested on: human lymphoblastoid TK6 cells, thymidine kinase gene; experiment: TK gene mutation assay (TK6 assay, OECD TG490); conditions: for MF: graph sheet Short-S9
Experimental: (§1) In principle, this collaborative study conducted the treatment of test substances, the dose finding, and the main test of TK6 assays, according to the OECD Guideline TG490 [17]. […] Briefly, test substances were dissolved in an appropriate solvent (DMSO or ethanol) and then serially diluted to prepare final concentrations. […] The 4 h and 24 h treatments were conducted by shaking and static exposures, respectively. After treatment with test substances, cells were centrifuged (1000 rpm, 5 min), supernatants were removed, and cells were washed with a serum-free medium or Hank’s Balanced Salt Solution. After centrifugation (1000 rpm, 5 min) to remove the supernatant, cells (2 × 10^7 cells) were dispersed in an RPMI medium containing 10% serum, and cell concentration was measured. Treated cells were cultured at 37 °C with 5% CO2 condition and used for TK6 assays. At that time, to calculate the cloning efficiency (CE) (Eq. 1), the cells were cultured in a 96-well microplate at a concentration of about 1.6 cells/well for 2 weeks.
(§2) The TK6 assay is conducted between 20 and 10% RS0 as a maximum dose if cytotoxicity is observed. If no precipitate or limiting cytotoxicity was observed, the maximum dose was the lowest concentration among 10 mM, 2 mg/mL, or 2 μL/mL of the test substance. When the main TK6 assay was difficult to conduct under the condition of RS0 values from 20 to 10%, the test was conducted between 20 and 10% relative total growth (RTG), described later, as a maximum dose.
(§3) On the third day of culture, CE3 plates for determining plating efficiency and mutant frequency (MF) plates for mutation detection were prepared. CE3 plates were seeded in 96-well microplates at a concentration of about 1.6 cells/well. The MF plates were seeded in 96-well microplates at 40,000 cells/well in the presence of 3 μg/mL of trifluorothymidine (Sigma Aldrich).
(§4) Mutant colonies in MF plates were calculated using Eq. 7 using the Poisson distribution. EW was the number of wells without colonies, and TW was the total number of wells. N was the average number of cells per well (N = 40,000 in this study). The data were statistically analyzed by Omori’s method, a modified Dunnett’s procedure for identifying clear negatives, a Simpson–Margolin procedure for detecting downturn data, and a trend test to evaluate the dose dependency [42, 43]. The acceptability criterion for the test was that the MF value of the positive control group of each laboratory was increased with statistical significance compared with that of the concurrent negative control group.

[4] = tested on: human lymphoblastoid TK6 cells, thymidine kinase gene
Experimental: as §1, §2, §3, §4

[5] = tested on: TA1538, TA100, TA98, TA97, TA1535; conditions: ref [18]-[40], Table 2, cited from earlier work
[6] = tested on: TK6 cells; experiment: Cytotoxicity in the TK6 assay (CE, RS, RSG, RTG); conditions: for CE3: as fraction
[7] = TK6, short treatment -S9 mix, 250 μg/mL
[8] = TK6, short treatment -S9 mix, 500 μg/mL
[9] = TK6, short treatment -S9 mix, 1000 μg/mL
[10] = TK6, short treatment -S9 mix, 2000 μg/mL
[11] = dose 250 μg/mL, +S9 mix, short treatment
[12] = dose 250 μg/mL, -S9 mix, 24 h treatment
[13] = dose 500 μg/mL, +S9 mix, short treatment
[14] = dose 500 μg/mL, -S9 mix, 24 h treatment
[15] = dose 1000 μg/mL, +S9 mix, short treatment
[16] = dose 1000 μg/mL, -S9 mix, 24 h treatment
[17] = dose 2000 μg/mL, +S9 mix, short treatment
[18] = dose 2000 μg/mL, -S9 mix, 24 h treatment

In the case of `CNc1ccc(N(CCO)CCO)cc1[N+](=O)[O-]` [HC blue No. 1, reference compound], the carcinogenicity classification ([1]; ref [84]) is listed as “carcinogen”, the “mutagenicity in MLA (+S9)” value ([2]; +S9, ref [68]) is listed as “positive with weak response” and the “MLA (−S9)” value ([2]; substance with high purity, −S9, ref [27], [85]) is listed as “negative”.
In the case of `IC(I)I` [Iodoform], the “Carcinogenicity Studies” value ([1]; rodent, ref [20]-[41], Table 2) is given as “Neg”, the MF ([3]; 6.25 μg/mL, -S9 mix) is given as 2.7 and the “%SG” value ([3]; 6.25 μg/mL, short treatment, -S9 mix) is given as 88.0%. For the same compound, the MF ([3]; 50.0 μg/mL, -S9 mix) was 3.0, the “%SG” value ([3]; 50.0 μg/mL, short treatment, -S9 mix) was 48.2% and the MF ([3]; 100.0 μg/mL, -S9 mix) was 4.5. For the same compound, the “%SG” value ([3]; 100.0 μg/mL, short treatment, -S9 mix) was 69.7%, the MF ([3]; 200.0 μg/mL, -S9 mix) was 3.2 and the “%SG” value ([3]; 200.0 μg/mL, short treatment, -S9 mix) was 80.4%. For the same compound, the “%SG” value ([3]; 24 h treatment -S9 mix, dose 10.00 μg/mL) was 71.6%, the “%SG” value ([3]; 24 h treatment -S9 mix, dose 20.00 μg/mL) was 71.8% and the “%SG” value ([3]; 24 h treatment -S9 mix, dose 30.00 μg/mL) was 87.1%. The “%SG” value ([3]; 24 h treatment -S9 mix, dose 40.0 μg/mL) was 100.0%, the “%SG” value ([3]; 24 h treatment -S9 mix, dose 50.0 μg/mL) was 100.0% and the “%SG” value ([3]; 24 h treatment -S9 mix, dose 60.0 μg/mL) was 79.6%. For the same compound, the “%SG” value ([3]; 24 h treatment -S9 mix, dose 70.0 μg/mL) was 85.6%, the “%SG” value ([3]; Short treatment +S9 mix, dose 25 μg/mL) was 65.1% and the “%SG” value ([3]; Short treatment +S9 mix, dose 50 μg/mL) was 57.3%. For the same compound, the “%SG” value ([3]; Short treatment +S9 mix, dose 100 μg/mL) was 65.1%, the “%SG” value ([3]; Short treatment +S9 mix, dose 200 μg/mL) was 61.0% and the “MF at high-dose levels” value [4] was “dose-dependent increase in MF”. The “TK6 assay overall judgment” value [4] was “negative”, the “TK6 assay result (mutant frequency increase, judgment)” value [4] was “Negative” and the “TK mutation assay, Long term” value [4] was “Neg”. The “TK mutation assay, With S9” value [4] was “Neg”, the “TK mutation assay, Without S9” value [4] was “Neg” and the “Bacterial reverse mutation assay, With S9” value ([5]; with S9) was “Pos”. For the same compound, the “Bacterial reverse mutation assay, Without S9” value ([5]; without S9) was “Pos”.
For `Cc1c(N)cccc1N` [2,6-DAT], the “%SG” value [3, 7] was 77.8%, the “Mut. freq. (×10-6) N-MF” value [3, 7] was 2.2 ×10-6 and the “Mut. freq. (×10-6) S-MF” value [3, 7] was 7.9 ×10-6. For the same compound, the “Mut. freq. (×10-6) T-MF” value [3, 7] was 10.1 ×10-6, the “%SG” value [3, 8] was 86.8% and the “Mut. freq. (×10-6) N-MF” value [3, 8] was 0.9 ×10-6. The “Mut. freq. (×10-6) S-MF” value [3, 8] was 5.8 ×10-6, the “Mut. freq. (×10-6) T-MF” value [3, 8] was 6.7 ×10-6 and the “%SG” value [3, 9] was 83.3%. For the same compound, the “Mut. freq. (×10-6) N-MF” value [3, 9] was 2.1 ×10-6, the “Mut. freq. (×10-6) S-MF” value [3, 9] was 10.3 ×10-6 and the “Mut. freq. (×10-6) T-MF” value [3, 9] was 12.3 ×10-6. The “%SG” value [3, 10] was 78.9%, the “Mut. freq. (×10-6) N-MF” value [3, 10] was 1.9 ×10-6 and the “Mut. freq. (×10-6) S-MF” value [3, 10] was 7.3 ×10-6. For the same compound, the “Mut. freq. (×10-6) T-MF” value [3, 10] was 9.2 ×10-6, the “%SG” value [3, 11] was 74.2% and the “Mut. freq. N-MF” value [3, 11] was 2.7 ×10-6. For the same compound, the “Mut. freq. S-MF” value [3, 11] was 7.7 ×10-6, the “Mut. freq. T-MF” value [3, 11] was 10.3 ×10-6 and the “%SG” value [3, 12] was 76.3%. For the same compound, the “Mut. freq. N-MF” value [3, 12] was 3.4 ×10-6, the “Mut. freq. S-MF” value [3, 12] was 10.8 ×10-6 and the “Mut. freq. T-MF” value [3, 12] was 14.2 ×10-6. The “%SG” value [3, 13] was 83.1%, the “Mut. freq. N-MF” value [3, 13] was 1.5 ×10-6 and the “Mut. freq. S-MF” value [3, 13] was 7.6 ×10-6. The “Mut. freq. T-MF” value [3, 13] was 9.1 ×10-6, the “%SG” value [3, 14] was 79.9% and the “Mut. freq. N-MF” value [3, 14] was 3.0 ×10-6. For the same compound, the “Mut. freq. S-MF” value [3, 14] was 11.9 ×10-6, the “Mut. freq. T-MF” value [3, 14] was 14.9 ×10-6 and the “%SG” value [3, 15] was 79.2%. For the same compound, the “Mut. freq. N-MF” value [3, 15] was 1.8 ×10-6, the “Mut. freq. S-MF” value [3, 15] was 7.0 ×10-6 and the “Mut. freq. T-MF” value [3, 15] was 8.9 ×10-6. The “%SG” value [3, 16] was 87.5%, the “Mut. freq. N-MF” value [3, 16] was 3.4 ×10-6 and the “Mut. freq. S-MF” value [3, 16] was 24.1 ×10-6. For the same compound, the “Mut. freq. T-MF” value [3, 16] was 27.5 ×10-6, the “%SG” value [3, 17] was 80.8% and the “Mut. freq. N-MF” value [3, 17] was 3.4 ×10-6. The “Mut. freq. S-MF” value [3, 17] was 14.5 ×10-6, the “Mut. freq. T-MF” value [3, 17] was 17.9 ×10-6 and the “%SG” value [3, 18] was 84.3%. The “Mut. freq. N-MF” value [3, 18] was 3.4 ×10-6, the “Mut. freq. S-MF” value [3, 18] was 18.1 ×10-6 and the “Mut. freq. T-MF” value [3, 18] was 21.4 ×10-6. For the same compound, the “Adjusted CE0(%)” value [6, 7] was 52.1%, the “CE0 (%), cell viability on Day 0” value [6, 7] was 53.2% and the “CE3 (%), cell viability on Day 3” value [6, 7] was 116.0%. For the same compound, the “RS0 (%)” value [6, 7] was 75.5%, the RSG [6, 7] was 0.717 and the CE3 [6, 7] was 1.160. The “Adjusted CE0(%)” value [6, 8] was 49.9%, the “CE0 (%), cell viability on Day 0” value [6, 8] was 48.8% and the “CE3 (%), cell viability on Day 3” value [6, 8] was 104.6%. For the same compound, the “RS0 (%)” value [6, 8] was 72.4%, the RSG [6, 8] was 0.788 and the CE3 [6, 8] was 1.046. The “Adjusted CE0(%)” value [6, 9] was 40.8%, the “CE0 (%), cell viability on Day 0” value [6, 9] was 40.8% and the “CE3 (%), cell viability on Day 3” value [6, 9] was 92.1%. For the same compound, the “RS0 (%)” value [6, 9] was 59.2%, the RSG [6, 9] was 0.679 and the CE3 [6, 9] was 0.921. For the same compound, the “Adjusted CE0(%)” value [6, 10] was 26.2%, the “CE0 (%), cell viability on Day 0” value [6, 10] was 28.3% and the “CE3 (%), cell viability on Day 3” value [6, 10] was 112.0%. For the same compound, the “RS0 (%)” value [6, 10] was 38.0%, the RSG [6, 10] was 0.616 and the CE3 [6, 10] was 1.120. For the same compound, the “Adjusted CE0” value [6, 11] was 75.0%, the “CE0 (cell viability on Day 0)” value [6, 11] was 72.7% and the “CE3 (cell viability on Day 3)” value [6, 11] was 81.6%. It also gave an RS0 [6, 11] of 80.9%, an RSG [6, 11] of 0.721 and a CE3 [6, 11] of 0.816. The “Adjusted CE0” value [6, 12] was 51.3%, the “CE3 (cell viability on Day 3)” value [6, 12] was 95.0% and the RS0 [6, 12] was 57.2%. For the same compound, the RSG [6, 12] was 0.982, the CE3 [6, 12] was 0.950 and the “Adjusted CE0” value [6, 13] was 70.6%. For the same compound, the “CE0 (cell viability on Day 0)” value [6, 13] was 68.7%, the “CE3 (cell viability on Day 3)” value [6, 13] was 86.6% and the RS0 [6, 13] was 76.2%. For the same compound, the RSG [6, 13] was 0.855, the CE3 [6, 13] was 0.866 and the “Adjusted CE0” value [6, 14] was 25.3%. For the same compound, the “CE0 (cell viability on Day 0)” value [6, 14] was 36.0%, the RS0 [6, 14] was 28.1% and the RSG [6, 14] was 0.472. The CE3 [6, 14] was 1.160, the “Adjusted CE0” value [6, 15] was 45.8% and the “CE0 (cell viability on Day 0)” value [6, 15] was 43.3%. For the same compound, the “CE3 (cell viability on Day 3)” value [6, 15] was 95.0%, the RS0 [6, 15] was 49.5% and the RSG [6, 15] was 0.544. The CE3 [6, 15] was 0.950, the “Adjusted CE0” value [6, 16] was 25.1% and the “CE3 (cell viability on Day 3)” value [6, 16] was 101.2%. For the same compound, the RS0 [6, 16] was 28.0%, the RSG [6, 16] was 0.453 and the CE3 [6, 16] was 1.012. The “Adjusted CE0” value [6, 17] was 31.8%, the “CE0 (cell viability on Day 0)” value [6, 17] was 31.5% and the “CE3 (cell viability on Day 3)” value [6, 17] was 84.1%. The RS0 [6, 17] was 34.3%, the RSG [6, 17] was 0.246 and the CE3 [6, 17] was 0.841. The “Adjusted CE0” value [6, 18] was 20.5%, the “CE0 (cell viability on Day 0)” value [6, 18] was 25.3% and the “CE3 (cell viability on Day 3)” value [6, 18] was 108.2%. The RS0 [6, 18] was 22.8%, the RSG [6, 18] was 0.237 and the CE3 [6, 18] was 1.082.
